Patent publication EP3290412A1, “HIV-1 NUCLEOCAPSID INHIBITORS” (Università degli Studi di Siena, priority 2016, dated 2018)
Like-named read-outs stand apart in the source and are kept apart here.

Legend:
[1] = system: HIV-1 reference strain NL4-3; assay: BiCycle assay (MT-2 then TZM-bl cells); format: cell-based
Summary of the method: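 MT-2 cells were infected with NL4-3 in the presence of five-fold compound dilutions. After 72 h, the supernatant was passed to TZM-bl cells. Two days later, luciferase luminescence was read and IC50 calculated, giving a readout that spans the whole replication cycle.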

NC(11-55) = NC(11-55) (Human immunodeficiency virus type 1, UniProt P12493); assay: NC inhibition assay (NC-induced cTAR DNA destabilization, fluorescence); format: biochemical, HIV-1; conditions: for inhibition at 100 µM: single point screening, positive = >25% inhibition at 100µM
Summary of the method: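 Doubly labelled cTAR (0.1 µM, Alexa488/Dabcyl) pre-complexed with 1 µM Zn-loaded NC(11-55) for 15 min, then compound added for a further 15 min; run at 20 °C in Tris-HCl pH 7.5, 30 mM NaCl, 0.2 mM MgCl2. Fluorescence read at ex 480/em 520 nm. IC50 taken from dose-response fit of % inhibition of NC-induced fluorescence increase.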

ARP clone 7400 (NRTI) = assay: BiCycle assay, resistant viral strain; format: cell-based, HIV-1; conditions: IC50 resistant strain / IC50 wild type NL4-3, BiCycle Assay
Protocol: (§1) BiCycle Assay is cell based assay allowing the evaluation of the antiviral activity of HIV-1 inhibitors on the whole replication cycle of HIV-1. The assay consists in a first round of infection of the T-cell line MT-2 followed by infection of TZM-bl cells. MT-2 cells were seeded at a concentration of 50,000 cells/well in a 96-well plate and infected with the HIV-1 reference strain NL4-3 in presence of five-fold dilutions of the investigational compounds. After 72 hours, 50 µl of supernatant from each well, containing the virus produced in the first round of infection, were used to infect TZM-bl cells seeded in a 96-plate well at a concentration of 30,000 cells/well. Two days later, cells were lysed adding 40 µl of Glo Lysis Buffer (Promega) to each well for 5 minutes, then 40 µl of Brighy-Glo Luciferase Reagent (Promega) were added to each well for relative luminescence units (RLU) counting using Glo-Max Multi Detection System (Promega). RLU values from each well were elaborated using the GraphPad v5.0 software to calculate the IC50 of each compound.
(§2) The antiviral activity of some of the compounds listed in Table 3 was further evaluated determining the IC50 with viruses carrying resistant mutations that reduce the susceptibility to drugs currently employed in clinical practice to treat HIV infection. The resistant viruses were obtained through the NIH AIDS Reagent Program (www.aidsreagent.org) and have been already characterized by the Phenosense Assay (Monogram Biosciences), considered as the reference assay for phenotypic investigation of HIV drug resistance due to its large application in clinical trials.
(§3) IC50 values of resistant viral strains were determined by using the BiCycle Assay as previously described. The results of the analysis are summarized in Table 6, where fold change values are calculated as the ratio between the IC50 values of resistant HIV-1 strains and the IC50 value of the wild type reference HIV-1 strain NL4-3. Table 6. Fold change values of resistant viral strains

ARP clone 12229 (NNRTI) = assay: BiCycle assay, resistant viral strain; format: cell-based, HIV-1; conditions: IC50 resistant strain / IC50 wild type NL4-3, BiCycle Assay
Protocol: as §1, §2, §3

ARP clone 12465 (PI) = assay: BiCycle assay, resistant viral strain; format: cell-based, HIV-1; conditions: IC50 resistant strain / IC50 wild type NL4-3, BiCycle Assay
Protocol: as §1, §2, §3

ARP clone 11845 (INI) = assay: BiCycle assay, resistant viral strain; format: cell-based, HIV-1; conditions: IC50 resistant strain / IC50 wild type NL4-3, BiCycle Assay
Protocol: as §1, §2, §3

ARP clone 12231 (NNRTI) = assay: BiCycle assay, resistant viral strain; format: cell-based, HIV-1; conditions: IC50 resistant strain / IC50 wild type NL4-3, BiCycle Assay
Protocol: as §1, §2, §3

ARP clone 11808 (PI) = assay: BiCycle assay, resistant viral strain; format: cell-based, HIV-1; conditions: IC50 resistant strain / IC50 wild type NL4-3, BiCycle Assay
Protocol: as §1, §2, §3

[2] = Human immunodeficiency virus 1, NL43, TZM-bl, read-out: BiCycle IC50 nM
[3] = Human immunodeficiency virus 1, NL43, MT-2 cells 72 hours then TZM-bl cells two days, NL4-3, read-out: BiCycle IC50
[4] = cTAR DNA 0.1 µM, 1 µM NC(11-55), 20 °C, pH 7.5, read-out: NC inhibition IC50

SMILES | IC50 [1, 2] [nM] | IC50 (NC(11-55)) [µM] | inhibition at 100 µM (NC(11-55)) [%] | also measured
O=C(NCC1CCCCC1)c1nc(-c2ccccn2)nc(O)c1O [Compound 1, N-(cyclohexylmethyl)-5,6-dihydroxy-2-(pyridin-2-yl)pyrimidine-4-carboxamide] | 1210 | 167 | > 25 | Fold change 7400 (NRTI) (ARP clone 7400 (NRTI)): 0.4; Fold change 12229 (NNRTI) (ARP clone 12229 (NNRTI)): 0.6; Fold change 12465 (PI) (ARP clone 12465 (PI)): 2.9; Fold change 11845 (INI) (ARP clone 11845 (INI)): 1.2; Fold change 12231 (NNRTI) (ARP clone 12231 (NNRTI)): 1.5; Fold change 11808 (PI) (ARP clone 11808 (PI)): 0.8
Cc1ccnc(-c2nc(O)c(O)c(C(=O)N[C@@H](C)C3CCCCC3)n2)c1 [Compound 79, (S)-N-(1-cyclohexylethyl)-5,6-dihydroxy-2-(4-methylpyridin-2-yl)pyrimidine-4-carboxamide] | 178 | 41 | > 25 | 
O=C(OCCC1CCCCC1)c1nc(-c2ccccn2)nc(O)c1O [Compound 12, 2-cyclohexylethyl 5,6-dihydroxy-2-(pyridin-2-yl)pyrimidine-4-carboxylate] | 2820 | 57.5 | > 25 | 
C[C@H](NC(=O)c1nc(-c2nccc3ccccc23)nc(O)c1O)C1CCCCC1 [Compound 80, (S)-N-(1-cyclohexylethyl)-5,6-dihydroxy-2-(isoquinolin-1-yl)pyrimidine-4-carboxamide] | 144 | 11 | > 25 | 
Cc1cccc(-c2nc(O)c(O)c(C(=O)N[C@H](C)C3CCCCC3)n2)n1 [Compound 18, (R)-N-(1-cyclohexylethyl)-5,6-dihydroxy-2-(6-methylpyridin-2-yl)pyrimidine-4-carboxamide] | 437 | 20 | > 25 | 
C[C@@H](NC(=O)c1nc(-c2cccc(C(=O)OCc3ccccc3)n2)nc(O)c1O)C1CCCCC1 [Compound 54, benzyl (R)-6-(4-((1-cyclohexylethyl)carbamoyl)-5,6-dihydroxypyrimidin-2-yl)picolinate] |  |  | > 25 | IC50 [1, 3]: 422 nM
C[C@@H](NC(=O)c1nc(-c2ccc(CO)cn2)nc(O)c1O)C1CCCCC1 [Compound 55, (R)-N-(1-cyclohexylethyl)-5,6-dihydroxy-2-(5-(hydroxymethyl)pyridin-2-yl)pyrimidine-4-carboxamide] | 504 |  | > 25 | IC50 (NC(11-55); [4]): 40 µM
C[C@H](NC(=O)c1nc(-c2nccc3[nH]ccc23)nc(O)c1O)C1CCCCC1 [Compound 86, (S)-N-(1-cyclohexylethyl)-5,6-dihydroxy-2-(1H-pyrrolo[3,2-c]pyridin-4-yl)pyrimidine-4-carboxamide] | 2280 |  | > 25 | IC50 (NC(11-55); [4]): 5.5 µM
C[C@@H](NC(=O)c1nc(-c2ccc(C(=O)NCc3ccccc3)cn2)nc(O)c1O)C1CCCCC1 [Compound 50, (R)-2-(5-(benzylcarbamoyl)pyridin-2-yl)-N(1-cyclohexylethyl)-5,6-dihydroxypyrimidine-4-carboxamide] | 348 | 5 | > 25 | 
C[C@@H](NC(=O)c1nc(-c2cc(N3CCN(C)CC3)ccn2)nc(O)c1O)C1CCCCC1 [Compound 76, (R)-N-(1-cyclohexylethyl)-5,6-dihydroxy-2-(4-(4-methylpiperazin-1-yl)pyridin-2-yl)pyrimidine-4-carboxamide] | 565 | 7 | > 25 | 
C[C@@H](NC(=O)c1nc(-c2cc(N)ccn2)nc(O)c1O)C1CCCCC1 [Compound 48, (R)-2-(4-aminopyridin-2-yl)-N-(1-cyclohexylethyl)-5,6-dihydroxypyrimidine-4-carboxamide] | 1340 | 4 | > 25 | 
C[C@@H](NC(=O)c1nc(-c2cccc(C(F)(F)F)n2)nc(O)c1O)C1CCCCC1 [Compound 44, (R)-N-(1-cyclohexylethyl)-5,6-dihydroxy-2-(6-(trifluoromethyl)pyridin-2-yl)pyrimidine-4-carboxamide] |  |  | > 25 | IC50 [1, 3]: 936 nM
C[C@@H](NC(=O)c1nc(-c2ccc(N)cn2)nc(O)c1O)C1CCCCC1 [Compound 20, (R)-2-(5-aminopyridin-2-yl)-N-(1-cyclohexylethyl)-5,6-dihydroxypyrimidine-4-carboxamide] | 94.5 | 3 | > 25 | 
C[C@@H](NC(=O)c1nc(-c2ccccn2)nc(O)c1O)C1CCCCC1 [Compound 5, (R)-N-(1-cyclohexylethyl)-5,6-dihydroxy-2-(pyridin-2-yl)pyrimidine-4-carboxamide] | 702 | 42.5 | > 25 | 
C[C@@H](NC(=O)c1nc(-c2ncccc2C(F)(F)F)nc(O)c1O)C1CCCCC1 [Compound 30, (R)-N-(1-cyclohexylethyl)-5,6-dihydroxy-2-(3-(trifluoromethyl)pyridin-2-yl)pyrimidine-4-carboxamide] |  |  | > 25 | IC50 [1, 3]: 1730 nM
O=C(OCC1CCCCC1)c1nc(-c2ccccn2)nc(O)c1O [Compound 2, cyclohexylmethyl 5,6-dihydroxy-2-(pyridin-2-yl)pyrimidine-4-carboxylate] | 1780 | 74 | > 25 | 
Cc1ccnc(-c2nc(O)c(O)c(C(=O)N[C@H](C)C3CCCCC3)n2)c1 [Compound 19, (R)-N-(1-cyclohexylethyl)-5,6-dihydroxy-2-(4-methylpyridin-2-yl)pyrimidine-4-carboxamide] | 218 | 8.5 | > 25 | 
C[C@@H](NC(=O)c1nc(-c2cc(C(=O)OCc3ccccc3)ccn2)nc(O)c1O)C1CCCCC1 [Compound 46, benzyl (R)-2-(4-((1-cyclohexylethyl)carbamoyl)-5,6-dihydroxypyrimidin-2-yl)isonicotinate] | 543 | 10 | > 25 | 
COc1cc(-c2nc(O)c(O)c(C(=O)N[C@H](C)C3CCCCC3)n2)nc2ccccc12 [Compound 68, N-[(1R)-1-cyclohexylethyl]-2-(4-methoxyquinolin-2-yl)-5,6-bis(oxidanyl)pyrimidine-4-carboxamide] |  |  | > 25 | IC50 [1, 3]: 240 nM
C[C@@H](NC(=O)c1nc(-c2ccc(C(F)(F)F)cn2)nc(O)c1O)C1CCCCC1 [Compound 36, (R)-N-(1-cyclohexylethyl)-5,6-dihydroxy-2-(5-(trifluoromethyl)pyridin-2-yl)pyrimidine-4-carboxamide] | 132 | 22.5 | > 25 | 
Cc1cccnc1-c1nc(O)c(O)c(C(=O)NCC2CCCCC2)n1 [Compound 11, N-(cyclohexylmethyl)-5,6-dihydroxy-2-(3-methylpyridin-2-yl)pyrimidine-4-carboxamide] | 716 | 14.3 | > 25 | 
COc1ccc(-c2nc(O)c(O)c(C(=O)N[C@H](C)C3CCCCC3)n2)nc1 [Compound 32, (R)-N-(1-cyclohexylethyl)-5,6-dihydroxy-2-(5-methoxypyridin-2-yl)pyrimidine-4-carboxamide] | 341 | 45 | > 25 | 
Cc1cccnc1-c1nc(O)c(O)c(C(=O)OCC2CCCCC2)n1 [Compound 10, cyclohexylmethyl 5,6-dihydroxy-2-(3-methylpyridin-2-yl)pyrimidine-4-carboxylate] | 1400 | 55 | > 25 | 
